Test system: human bladder smooth muscle
Test: Relaxing effect on resting tension of isolated human bladder smooth muscle strips
Type: cell-based
Details: drug added cumulatively about every 5 minutes, 0 % = 10^-5 M forskolin, Figure 1
Procedure: Measurement of the contractile force of human bladder smooth muscle strips (1) Smooth muscle preparations Human bladders were obtained from patients undergoing cystectomy and were carefully dissected free from the surrounding fat and mucosa. Preparations were prepared by cutting the bladder smooth muscle longitudinally into about 1.5 cm in length and about 3 mm in width and used. […] Conditions for measurement; The bathing solution was maintained at 37 °C and gassed with a mixture of 95 % O2 and 5 % CO2. Drug Treatment; The drug was cumulatively added about every 5 minutes. Evaluation of the drug effects; The drug-induced relaxation was evaluated. The tension before the drug treatment is indicated as 100 %, and the tension after treatment with 10^-5 M forskolin which produces maximal bladder relaxation is indicated as 0 %. According to the method described above, the bladder relaxing effects of the following drugs were measured using human bladder smooth muscle.

CC(C)(C)NCC(O)COc1cccc2[nH]c(=O)[nH]c12.Cl (racemic) [CGP-12,177A hydrochloride, (±)-4-[3-[(1,1-dimethylethyl)-amino]-2-hydroxypropoxy]-1,3-dihydro-2H-benzimidazol-2-on hydrochloride]
relaxing effects on bladder smooth muscle: apparent relaxing effects

CC(C)NCC(O)c1ccc(O)c(O)c1 (centres unmarked) [isoproterenol]
relaxing effects on bladder smooth muscle: apparent relaxing effects

Reference: patent EP0958835A1, “PREVENTIVE/REMEDY FOR FREQUENT URINATION AND URINARY INCONTINENCE” (Kissei Pharmaceutical Co., Ltd., priority 1996, dated 1998)
